Data reported in publication PMC11053447, “Human ABC and SLC Transporters: The Culprit Responsible for Unspecific PSMA-617 Uptake?” (Pharmaceuticals, 2024).
One block for each compound: values may come before it.

Assays:
MRP4 = biological target: T1, MRP4 (Homo sapiens, UniProt O15439); assay: Vesicular transport inhibition assay (ABC), MRP4-mediated DHEAS transport, HEK293 membrane vesicles; format: in vitro ADME; conditions: positive control inhibitor 150.0 µM, DHEAS probe
T1 construct: host or cells: HEK293 (membrane vesicles)
T1 sequence (O15439 1-1325): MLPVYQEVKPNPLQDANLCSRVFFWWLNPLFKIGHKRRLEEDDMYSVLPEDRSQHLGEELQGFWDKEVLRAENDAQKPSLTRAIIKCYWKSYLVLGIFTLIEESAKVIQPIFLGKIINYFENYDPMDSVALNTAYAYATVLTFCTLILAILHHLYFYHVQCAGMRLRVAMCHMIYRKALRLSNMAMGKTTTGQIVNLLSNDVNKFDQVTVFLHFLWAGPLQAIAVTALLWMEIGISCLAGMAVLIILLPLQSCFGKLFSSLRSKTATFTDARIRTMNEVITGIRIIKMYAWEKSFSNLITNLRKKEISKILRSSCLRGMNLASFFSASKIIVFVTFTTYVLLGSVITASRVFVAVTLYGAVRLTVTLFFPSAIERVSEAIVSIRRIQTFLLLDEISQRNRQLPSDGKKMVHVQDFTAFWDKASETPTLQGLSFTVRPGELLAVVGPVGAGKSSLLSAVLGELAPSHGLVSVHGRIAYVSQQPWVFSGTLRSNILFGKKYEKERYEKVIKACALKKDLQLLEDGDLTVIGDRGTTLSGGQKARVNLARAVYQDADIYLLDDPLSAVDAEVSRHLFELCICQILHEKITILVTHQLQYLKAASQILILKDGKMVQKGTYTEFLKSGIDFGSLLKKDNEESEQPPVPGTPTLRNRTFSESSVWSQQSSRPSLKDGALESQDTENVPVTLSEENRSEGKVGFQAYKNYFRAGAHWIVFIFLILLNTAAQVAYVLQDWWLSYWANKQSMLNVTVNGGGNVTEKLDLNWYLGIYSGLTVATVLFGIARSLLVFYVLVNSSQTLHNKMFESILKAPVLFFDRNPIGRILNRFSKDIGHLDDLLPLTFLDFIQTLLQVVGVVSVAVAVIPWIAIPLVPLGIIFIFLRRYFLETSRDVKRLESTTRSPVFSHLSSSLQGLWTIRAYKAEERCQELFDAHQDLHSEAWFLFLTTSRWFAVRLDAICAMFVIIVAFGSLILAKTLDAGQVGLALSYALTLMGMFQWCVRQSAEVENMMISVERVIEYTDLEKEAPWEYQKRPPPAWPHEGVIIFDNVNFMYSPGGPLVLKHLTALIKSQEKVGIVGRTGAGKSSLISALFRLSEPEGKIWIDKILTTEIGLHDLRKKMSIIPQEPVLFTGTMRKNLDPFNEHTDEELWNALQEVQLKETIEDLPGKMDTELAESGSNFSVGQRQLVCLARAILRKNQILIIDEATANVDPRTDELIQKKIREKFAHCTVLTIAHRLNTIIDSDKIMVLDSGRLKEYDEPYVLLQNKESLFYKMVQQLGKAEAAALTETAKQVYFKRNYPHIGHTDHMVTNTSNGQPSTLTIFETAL

MDR1 = MDR1 (Homo sapiens, UniProt P08183)
Chain of MDR1 (P08183 whole entry): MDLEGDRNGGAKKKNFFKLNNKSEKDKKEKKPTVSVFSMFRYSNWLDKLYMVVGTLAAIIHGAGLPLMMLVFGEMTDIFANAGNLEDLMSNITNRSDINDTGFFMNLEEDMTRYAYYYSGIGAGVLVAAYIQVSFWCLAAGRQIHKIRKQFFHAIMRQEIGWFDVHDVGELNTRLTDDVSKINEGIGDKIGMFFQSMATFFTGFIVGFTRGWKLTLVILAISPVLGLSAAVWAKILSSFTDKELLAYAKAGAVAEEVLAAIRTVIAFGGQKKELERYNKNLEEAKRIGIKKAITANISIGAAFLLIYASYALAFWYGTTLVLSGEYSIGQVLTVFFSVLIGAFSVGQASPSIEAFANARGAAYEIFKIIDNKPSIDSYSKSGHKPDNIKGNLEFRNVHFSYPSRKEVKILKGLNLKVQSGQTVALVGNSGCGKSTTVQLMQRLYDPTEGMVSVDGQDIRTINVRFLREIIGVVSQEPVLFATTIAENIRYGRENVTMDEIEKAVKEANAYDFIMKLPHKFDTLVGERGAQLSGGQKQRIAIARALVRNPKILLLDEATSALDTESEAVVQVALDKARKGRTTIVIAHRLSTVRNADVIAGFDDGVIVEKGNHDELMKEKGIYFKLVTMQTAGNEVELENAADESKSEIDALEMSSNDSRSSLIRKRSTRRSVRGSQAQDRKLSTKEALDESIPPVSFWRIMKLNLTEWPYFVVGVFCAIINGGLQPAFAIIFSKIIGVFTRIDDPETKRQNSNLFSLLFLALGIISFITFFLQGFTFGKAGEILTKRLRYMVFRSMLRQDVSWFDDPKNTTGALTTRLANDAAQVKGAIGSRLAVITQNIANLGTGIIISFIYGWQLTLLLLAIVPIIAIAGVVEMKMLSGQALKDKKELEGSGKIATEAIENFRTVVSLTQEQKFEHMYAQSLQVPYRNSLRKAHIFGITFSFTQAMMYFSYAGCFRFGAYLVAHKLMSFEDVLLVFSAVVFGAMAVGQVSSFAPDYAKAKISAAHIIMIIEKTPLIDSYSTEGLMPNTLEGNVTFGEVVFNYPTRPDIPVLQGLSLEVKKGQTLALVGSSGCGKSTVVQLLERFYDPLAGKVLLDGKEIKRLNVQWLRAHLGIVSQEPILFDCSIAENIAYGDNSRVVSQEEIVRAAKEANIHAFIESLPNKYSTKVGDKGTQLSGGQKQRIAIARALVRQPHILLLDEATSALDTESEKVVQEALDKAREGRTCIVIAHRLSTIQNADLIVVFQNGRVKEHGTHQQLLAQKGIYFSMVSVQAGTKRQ
Method: The incubations were carried out in the presence of 4 mM ATP or AMP to distinguish between transporter-mediated uptake and passive diffusion into the vesicles. […] Afterwards, the reaction mixtures were pre-incubated for 15 min at 37 °C for MRP1 or at 32 °C for BCRP, MDR1 and MRP4, respectively. The transporter assay was initiated through the addition of 25 μL of pre-warmed 12 mM MgATP (or 12 mM AMP in assay buffer as a background control). The reactions were quenched through the addition of 200 μL of ice-cold washing buffer and immediate filtration via glass fiber filters mounted onto a 96-well plate (filter plate). The filters were washed (5 × 200 μL of ice-cold washing buffer) and dried, and the amount of probe substrate inside the filtered vesicles was determined using LSC. The experiments were conducted in triplicate.
Calculation of ATP-dependent transport and inhibition for vesicular transport inhibition
For all wells the amount of the translocated probe substrate was determined in counts per minute (cpm).
ATP-dependent transport (pmol/mg protein/min) is calculated for each concentration using the following
𝐴𝑐𝑐𝐴𝑇𝑃 ∙ 𝑉 ∙ 𝐶𝐶 𝐴𝑐𝑐𝐴𝑀𝑃 ∙𝑉 ∙𝐶𝐶
𝐴𝑇𝑃 − 𝑑𝑒𝑝𝑒𝑛𝑑𝑒𝑛𝑡 𝑎𝑐𝑐𝑢𝑚𝑢𝑙𝑎𝑡𝑖𝑜𝑛 = ( 𝑇𝐶𝑃𝑀 𝑠𝑢𝑏) − ( 𝑇𝐶𝑃𝑀 𝑠𝑢𝑏)
• AccATP: probe substrate accumulation with ATP (cpm)
• AccAMP: probe substrate accumulation with AMP (cpm)
• Tcpm: cpm in dosing solution V: volume per well (µL)
• CCsub: probe substrate concentration (µM)
• Prot: total protein per well (mg)
• t: incubation time (min)
Relative ATP-dependent transport (%) values were calculated using the following equation:
𝑅𝑒𝑙𝑎𝑡𝑖𝑣𝑒 𝐴𝑇𝑃 − 𝑑𝑒𝑝𝑒𝑛𝑑𝑒𝑛𝑡 𝑡𝑟𝑎𝑛𝑠𝑝𝑜𝑟𝑡 (%) = 𝐴 − 𝐵 ∙ 100
• A: amount of translocated substrate in the presence of test substance (TS) and ATP
• B: amount of translocated substrate in the presence of test substance (TS) and AMP
• C: amount of translocated substrate in the presence of solvent and ATP
• D: amount of translocated substrate in the presence of solvent and AMP
Relative inhibition (%) is calculated by setting probe substrate transport in the absence of test substance as
𝑅𝑒𝑙𝑎𝑡𝑖𝑣𝑒 𝑖𝑛ℎ𝑖𝑏𝑖𝑡𝑖𝑜𝑛 (%) = 𝐴𝑐𝑐𝑆𝑝𝑒𝑐𝑖𝑓𝑖𝑐,𝑥 ∙100
• Accspecific,x: transporter specific accumulation for a given sample (pmol/mg/min)
• Accspecific,vehicle: transporter specific accumulation for a solvent control (pmol/mg/min)
Data are expressed as mean (n=3)
N-methyl quinidine (NMQ) measured in the vesicular transport inhibition assay.
Nominal ATP Relative ATP Relative
Compound concentration [µM] dependent transport dependent transport inhibition [%]
[pmol/mg/min] [% of control]
Data are expressed as mean (n=3) ± SD.

[1] = parameters: method as in PMID 37191680; conditions: PSMA-null mice; cited from earlier work
[2] = cited from earlier work
[3] = parameters: method as in PMID 29651569; conditions: within the first 24 h post injection; cited from earlier work

inhibition at 1.5 min, 150 µM (MRP4; human, probe dehydroepiandrosterone sulfate (DHEAS), 0.5 µM, read-out: Relative inhibition): 98%
ATP dependent transport (MRP4; mean (n=3) ± SD): 256.00 ± 59.15 pmol/mg/min
Relative ATP dependent transport (MRP4; mean (n=3) ± SD): 2.06 ± 0.48 % of control
SMILES: CN(C)C(=O)CCSC(SCCC(=O)O)c1cccc(/C=C/c2ccc3ccc(Cl)cc3n2)c1 (stereo not drawn) [MK-571, reference compound]

inhibition at 1 min, 1 µM (MDR1; human, probe N-methyl quinidine (NMQ), 1.0 µM): 96%
Relative ATP dependent transport (MDR1; positive control inhibitor 1.00 µM, NMQ probe, mean (n=3) ± SD): 4.28 ± 0.62 % of control
SMILES: C/C=C/C[C@@H](C)C(=O)[C@H]1C(=O)N[C@@H](C(C)C)C(=O)N(C)CC(=O)N(C)[C@@H](CC(C)C)C(=O)N[C@@H](C(C)C)C(=O)N(C)[C@@H](CC(C)C)C(=O)N[C@@H](C)C(=O)N[C@H](C)C(=O)N(C)[C@@H](CC(C)C)C(=O)N(C)[C@@H](CC(C)C)C(=O)N(C)[C@@H](C(C)C)C(=O)N1C [Valspodar, reference compound]

SMILES: O=C([O-])CN(CCN(CC(=O)[O-])Cc1cc(CCC(=O)NCCCCCC(=O)NCCCC[C@H](NC(=O)N[C@@H](CCC(=O)O)C(=O)O)C(=O)O)ccc1[O-])Cc1cc(CCC(=O)O)ccc1[O-].[68Ga+3].[OH3+] [[^68Ga]Ga-PSMA-11]
Uptake by healthy kidneys and SGs [1]: greatly reduced uptake

SMILES: O=C([O-])CN1CCN(CC(=O)[O-])CCN(CC(=O)NCC2CCC(C(=O)NC(Cc3ccc4ccccc4c3)C(=O)NCCCCC(NC(=O)NC(CCC(=O)O)C(=O)O)C(=O)O)CC2)CCN(CC(=O)[O-])CC1.[177Lu+3] (stereo not drawn) [[^177Lu]Lu-PSMA-617]
Accumulation in the kidneys ([2]; kidneys): 0.5–0.6 Gy/GBq injected dose
Accumulation in the salivary glands ([2]; salivary glands (SGs)): up to 1 Gy/GBq injected dose
Excreted via the renal route in urine [3]: up to 70%
